The record followed here is ChEMBL document CHEMBL1124125, “6-(Alkylamino)-3-aryl-1,2,4-triazolo[3,4-a]phthalazines. A new class of benzodiazepine receptor ligands” (J Med Chem, 1988).

Data set [1] relates to Mus musculus. Nature of the data set: Activity was measured by rotarod test by intraperitoneal administration in mouse. Type of data set: functional. Conditions: ip. For orientation: The rotarod test checks motor coordination on a turning rod.
Data set [2] is filed under the species Mus musculus. Nature of the data set: Anticonvulsant activity when maximal electroshock is induced in mouse. Type of data set: functional. (Protection in the maximal electroshock model is a classic sign of anticonvulsant action.)
For data set [3], the system named is Mus musculus. Nature of the data set: Anticonvulsant activity when bicuculline given subcutaneously in mouse. It is filed as functional. Conditions: sc.
Data set [4] deals with Rattus norvegicus. Nature of the data set: Activity was measured by rotarod test by peroral administration in rat. Type of data set: functional. Conditions: po.
Data set [5] relates to Rattus norvegicus. Nature of the data set: Conditioned Avoidance response activity (CR2) at 10 mg/kg (i.p.) (No. of rats with blocked response/No. of treated rats). It is filed as functional. Conditions: route intraperitoneal.
The subject of data set [6] is Mus musculus. The experiment in a line: (§1) Anticonvulsant activity when lethal dose of strychnine given subcutaneously in mouse. Conditions: sc.
The test system of data set [7] is Rattus norvegicus. Nature of the data set: Minimal effective dose (MED) that significantly increased the number of shocks.(ip). Conditions: read-out: MED.
The test system of data set [8] is Mus musculus. The experiment in a line: Antagonism of Diazepam muscle relaxant effect by compound (3 mg/kg, ip) was measured by the fallen/treated mice. Type of data set: functional.
The subject of data set [9] is Rattus norvegicus. The experiment in a line: Minimal effective dose (MED, ip) that significantly increased the number of shocks (anticonflict). Type of data set: functional. Conditions: read-out: MED.
Data set [10] relates to Rattus norvegicus. The experiment in a line: Minimal effective dose on rat for motility after intraperitoneal administration. It is filed as functional. Conditions: ip, read-out: MED.
The test system of data set [11] is Mus musculus. Nature of the data set: Dose that prevented tonic extensor seizures and death in 50% of the mice.(ip). Type of data set: functional.
Data set [12] concerns the target GABA-A receptor; anion channel (Rattus norvegicus) (UniProt O09028+P15431+P18506+P18508+P19969+P20236+P23574+P23576+P28471+P28473+P30191+P62813+P63079+P63138+Q91ZM7+Q9ES14). The experiment in a line: GABA ratio (IC50/IC50 in the presence of 10e-4 GABA). Type of data set: protein-complex assay.
The test system of data set [13] is Mus musculus. The experiment in a line: Minimal effective dose on mouse for motility after intraperitoneal administration. Type of data set: functional. Conditions: ip, read-out: MED.
In data set [14] the test system is Rattus norvegicus. The experiment in a line: Effective dose on rat for motility after intraperitoneal administration. Type of data set: functional.
For data set [15], the system named is Mus musculus. The experiment in a line: Effective dose on mouse for motility after intraperitoneal administration. It is filed as functional.
Data set [16] is described as follows: Lethal dose when given intraperitoneally in mice. Type of data set: toxicity, organism-based. Conditions: mouse, in vivo, ip.
For data set [17], the system named is Mus musculus. The experiment in a line: Effective dose on mouse for motor coordination after intraperitoneal administration. It is filed as functional.
Data set [18] deals with Mus musculus. The experiment in a line: Effective dose on mouse for body tone after intraperitoneal administration. Type of data set: functional.
Data set [19] relates to Mus musculus. The experiment in a line: Anticonvulsant activity of the compound when bicuculline given subcutaneously in mouse. It is filed as functional. Conditions: sc.
The species entered for data set [20] is Mus musculus. Nature of the data set: Anticonvulsant activity of the compound when maximal electroshock is induced in mouse. Type of data set: functional.
The test system of data set [21] is Mus musculus. The experiment in a line: (§2) Anticonvulsant activity of the compound when lethal dose of strychnine given subcutaneously in mouse. Conditions: sc. Type of data set: functional.
Data set [22] has as its system Rattus norvegicus. Nature of the data set: Effective dose on rat for body tone after intraperitoneal administration. It is filed as functional.
In data set [23] the test system is Mus musculus. Nature of the data set: Minimal effective dose on mouse for body tone after intraperitoneal administration. It is filed as functional. Conditions: ip, read-out: MED.
The subject of data set [24] is Rattus norvegicus. The experiment in a line: Minimal effective dose on rat for body tone after intraperitoneal administration. It is filed as functional. Conditions: ip, read-out: MED.
The test system of data set [25] is Rattus norvegicus. The experiment in a line: Effective dose on rat for motor coordination after intraperitoneal administration. It is filed as functional.
The target of data set [26] is GABA-A receptor; anion channel. Nature of the data set: Inhibition of [3H]diazepam binding to GABA-A central benzodiazepine receptor of rat brain homogenate.
For data set [27], the system named is Mus musculus. The experiment in a line: Minimal effective dose on mouse for motor coordination after intraperitoneal administration. Conditions: ip, read-out: MED. It is filed as functional.
For data set [28], the system named is Rattus norvegicus. Nature of the data set: Minimal effective dose on rat for motor coordination after intraperitoneal administration. It is filed as functional. Conditions: ip, read-out: MED.
Data set [29] deals with Rattus norvegicus. The experiment in a line: Minimal effective dose on rat for mortality after intraperitoneal administration. (1/3 animals died). Type of data set: functional. Conditions: ip, read-out: MED.
Data set [30] deals with Rattus norvegicus. The experiment in a line: Conditioned Avoidance response activity (CR2) at 20 mg/kg (i.p.) (No. of rats with blocked response/No. of treated rats). Conditions: route intraperitoneal. It is filed as functional.
Data set [31] relates to Mus musculus. The experiment in a line: Minimal effective dose on mouse for mortality after intraperitoneal administration.(1/3 animals died). Conditions: ip, read-out: MED. Type of data set: functional.
Data set [32] relates to Mus musculus. The data set is described as §2. It is filed as ADME, organism-based. Conditions: in vivo, sc.
For data set [33], the system named is Mus musculus. The data set is described as §1. It is filed as ADME, organism-based. Conditions: in vivo, sc.
In data set [34] the test system is Mus musculus. The experiment in a line: Antagonism of Diazepam muscle relaxant effect by compound (60 mg/kg, ip) was measured as the ratio of fallen/treated mice. It is filed as functional.

As to `CN1C(=O)CN=C(c2ccccc2)c2cc(Cl)ccc21` [DIAZEPAM], the ED50 was 1 mg/kg in the data set on Mus musculus [1]; 14.2 mg/kg in the data set listed under Mus musculus [2]; 1.4 mg/kg in the data set on Mus musculus [3]; 15 mg/kg in the data set on Rattus norvegicus [4]; 3 mg/kg with Mus musculus [6]. In the data set on Rattus norvegicus [5], the CR2 turned out to be 5 block/treat. Further, the minimal effective dose with Rattus norvegicus [7] was determined as 3 mg/kg; in the data set with Rattus norvegicus [9], 0.25 mg/kg. For the same compound, the Fallen/treated with Mus musculus [8] was determined as 8.
As to `COCCN(CCOC)c1nn2c(-c3ccc(OC)cc3)nnc2c2ccccc12`, the ED50 was determined as 60 mg/kg with Mus musculus [1]; 6.2 mg/kg in the data set with Mus musculus [11]; 300 mg/kg with Rattus norvegicus [4]; 4 mg/kg in the data set on Mus musculus [19]; 50 mg/kg in the data set listed under Mus musculus [20]; 50 mg/kg with Mus musculus [21]. Also, the minimal effective dose in the data set on Rattus norvegicus [10] stood at 300 mg/kg; with Mus musculus [13] it was 10 mg/kg; with Mus musculus [23] it was 6 mg/kg; with Rattus norvegicus [24], 300 mg/kg; in the data set with Mus musculus [27], 6 mg/kg; in the data set with Rattus norvegicus [28], 100 mg/kg. Also, the minimal effective dose with Rattus norvegicus [29] amounted to 1000 mg/kg; in the data set with Mus musculus [31], 300 mg/kg; in the data set on Rattus norvegicus [9] it was 3.5 mg/kg. Also, the Ratio in data set [12] stood at 1.83. The ED came to 1000 mg/kg in the data set with Rattus norvegicus [14]; 60 mg/kg with Mus musculus [15]; 60 mg/kg with Mus musculus [17]; 100 mg/kg in the data set on Mus musculus [18]; 600 mg/kg with Rattus norvegicus [22]; 600 mg/kg with Rattus norvegicus [25]. The LD50 in [16] was 300 mg/kg. The CR2 with Rattus norvegicus [5] is on record as 4 block/treat; with Rattus norvegicus [30], 10 block/treat. The affinity in data set [26] corresponds to a Ki of 2.6 nM.
Turning to `Cc1nnc2ccc(-c3cccc(C(F)(F)F)c3)nn12` [CI-218872], the ED50 with Mus musculus [1] came to 10 mg/kg; with Mus musculus [32], 30 mg/kg; in the data set filed under Mus musculus [20] it was 30 mg/kg.
With `CNC1=Nc2ccc(Cl)cc2C(c2ccccc2)=[N+]([O-])C1` [CHLORDIAZEPOXIDE], the ED50 amounted to 11 mg/kg with Mus musculus [1]; 23 mg/kg in the data set filed under Mus musculus [2]; 4.7 mg/kg with Mus musculus [3]; 68.4 mg/kg with Rattus norvegicus [4]; 7.5 mg/kg in the data set with Mus musculus [33].
`COc1ccc(-c2nnc3c4ccccc4c(N4CCCC4)nn23)cc1` returned an ED50 in the data set on Mus musculus [11] greater than 100 mg/kg. For the same compound, the Ratio in data set [12] stood at 1.1. In addition, the LD50 in data set [16] worked out at 600 mg/kg. Moreover, in [26], the affinity, expressed as Ki, was 3.9 nM. The Fallen/treated in the data set with Mus musculus [34] was 5.

As a reminder, the ED50 is the midpoint of the dose-response relation. Low readings indicate an effect at a small dose, high ones a need for a large dose. Broadly, the LD50 is the dose expected to kill half of the subjects tested. Read a low LD50 as greater toxicity. As usually defined, the Ki is the dissociation constant of the complex between target and ligand, obtained from inhibition or displacement.
